Assays:
[1] = target: FGFR3 (human) (UniProt P22607); assay: HTRF
[2] = target: FLT1 (human) (UniProt P17948); assay: HTRF
[3] = target: NTRK2 (human) (UniProt Q16620); assay: HTRF
[4] = target: AKT1 (human) (UniProt P31749); assay: Flashplate
[5] = target: AURKB (human) (UniProt Q96GD4); assay: Flashplate
[6] = target: CAMK2G (human) (UniProt Q13555); assay: Flashplate
[7] = target: CDC7 (human) (UniProt O00311); assay: Flashplate
[8] = target: CDK1 (human) (UniProt P06493); assay: Flashplate
[9] = target: CHEK2 (human) (UniProt O96017); assay: Flashplate
Chain of CHEK2 (human) (O96017 whole entry, looked up): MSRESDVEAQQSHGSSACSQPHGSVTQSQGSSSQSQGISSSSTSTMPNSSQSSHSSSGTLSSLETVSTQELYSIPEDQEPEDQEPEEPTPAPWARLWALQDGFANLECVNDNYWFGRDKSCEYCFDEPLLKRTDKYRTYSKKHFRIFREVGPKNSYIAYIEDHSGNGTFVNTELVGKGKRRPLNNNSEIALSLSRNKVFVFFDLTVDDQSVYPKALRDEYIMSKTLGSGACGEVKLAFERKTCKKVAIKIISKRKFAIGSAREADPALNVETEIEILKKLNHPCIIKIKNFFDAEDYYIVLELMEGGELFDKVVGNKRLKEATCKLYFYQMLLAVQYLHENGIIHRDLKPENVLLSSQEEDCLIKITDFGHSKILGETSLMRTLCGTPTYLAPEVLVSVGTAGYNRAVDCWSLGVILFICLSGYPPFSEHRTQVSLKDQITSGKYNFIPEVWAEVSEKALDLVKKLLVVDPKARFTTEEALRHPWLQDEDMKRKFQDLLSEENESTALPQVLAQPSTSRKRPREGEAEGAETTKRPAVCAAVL

[10] = target: CLK4 (human) (UniProt Q9HAZ1); assay: Flashplate
Chain of CLK4 (human) (Q9HAZ1 whole entry, looked up): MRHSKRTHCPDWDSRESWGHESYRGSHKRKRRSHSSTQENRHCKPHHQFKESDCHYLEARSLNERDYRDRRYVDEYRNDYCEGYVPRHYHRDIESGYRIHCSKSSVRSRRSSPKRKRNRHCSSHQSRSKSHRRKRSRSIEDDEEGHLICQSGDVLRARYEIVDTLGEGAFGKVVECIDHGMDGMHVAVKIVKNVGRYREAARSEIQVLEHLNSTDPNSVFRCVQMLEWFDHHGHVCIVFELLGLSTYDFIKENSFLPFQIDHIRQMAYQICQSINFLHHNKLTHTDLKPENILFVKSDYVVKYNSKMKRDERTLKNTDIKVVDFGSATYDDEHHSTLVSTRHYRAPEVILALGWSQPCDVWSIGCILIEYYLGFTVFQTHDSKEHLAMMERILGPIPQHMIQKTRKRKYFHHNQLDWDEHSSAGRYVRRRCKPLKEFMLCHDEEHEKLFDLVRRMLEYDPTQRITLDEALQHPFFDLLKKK

[11] = target: CSNK1A1 (human) (UniProt P48729); assay: Flashplate
[12] = target: CSNK1D (human) (UniProt P48730); assay: Flashplate
[13] = target: CSNK1G2 (human) (UniProt P78368); assay: Flashplate
[14] = target: CSNK1G3 (human) (UniProt Q9Y6M4); assay: Flashplate
[15] = target: DCLK1 (human) (UniProt O15075); assay: Flashplate
[16] = target: DYRK1A (human) (UniProt Q13627); assay: Flashplate
[17] = target: GSK3B (human) (UniProt P49841); assay: Flashplate
[18] = target: MAP4K4 (human) (UniProt O95819); assay: Flashplate
[19] = target: MAPK1 (human) (UniProt P28482); assay: Flashplate
[20] = target: MAPK12 (human) (UniProt P53778); assay: Flashplate
Chain of MAPK12 (human) (P53778 whole entry, looked up): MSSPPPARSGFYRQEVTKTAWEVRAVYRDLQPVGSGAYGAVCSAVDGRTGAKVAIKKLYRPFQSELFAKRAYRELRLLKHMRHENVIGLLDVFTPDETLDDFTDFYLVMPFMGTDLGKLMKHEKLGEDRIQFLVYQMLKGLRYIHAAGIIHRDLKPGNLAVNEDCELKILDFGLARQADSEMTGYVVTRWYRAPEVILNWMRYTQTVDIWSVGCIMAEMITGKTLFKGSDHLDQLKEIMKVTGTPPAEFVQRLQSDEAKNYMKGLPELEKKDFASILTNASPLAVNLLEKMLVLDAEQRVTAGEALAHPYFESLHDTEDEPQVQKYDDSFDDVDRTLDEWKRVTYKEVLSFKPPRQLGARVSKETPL

[21] = target: MAPKAPK2 (human) (UniProt P49137); assay: Flashplate
[22] = target: MELK (human) (UniProt Q14680); assay: Flashplate
[23] = target: MKNK2 (human) (UniProt Q9HBH9); assay: Flashplate
[24] = target: NEK4 (human) (UniProt P51957); assay: Flashplate
[25] = target: PAK1 (human) (UniProt Q13153); assay: Flashplate
[26] = target: PAK4 (human) (UniProt O96013); assay: Flashplate
[27] = target: PIM1 (human) (UniProt P11309); assay: Flashplate
[28] = target: PIM2 (human) (UniProt Q9P1W9); assay: Flashplate
Chain of PIM2 (human) (Q9P1W9 whole entry, looked up): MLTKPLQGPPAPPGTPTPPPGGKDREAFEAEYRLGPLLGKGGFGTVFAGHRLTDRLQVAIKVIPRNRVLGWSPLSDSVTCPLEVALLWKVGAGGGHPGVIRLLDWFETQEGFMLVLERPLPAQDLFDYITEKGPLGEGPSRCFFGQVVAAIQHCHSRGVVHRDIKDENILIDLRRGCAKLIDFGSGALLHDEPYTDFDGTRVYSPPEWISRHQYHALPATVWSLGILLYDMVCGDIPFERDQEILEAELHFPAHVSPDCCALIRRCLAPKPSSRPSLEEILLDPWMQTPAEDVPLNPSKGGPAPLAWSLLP

[29] = target: PKN2 (human) (UniProt Q16513); assay: Flashplate
Chain of PKN2 (human) (Q16513 whole entry, looked up): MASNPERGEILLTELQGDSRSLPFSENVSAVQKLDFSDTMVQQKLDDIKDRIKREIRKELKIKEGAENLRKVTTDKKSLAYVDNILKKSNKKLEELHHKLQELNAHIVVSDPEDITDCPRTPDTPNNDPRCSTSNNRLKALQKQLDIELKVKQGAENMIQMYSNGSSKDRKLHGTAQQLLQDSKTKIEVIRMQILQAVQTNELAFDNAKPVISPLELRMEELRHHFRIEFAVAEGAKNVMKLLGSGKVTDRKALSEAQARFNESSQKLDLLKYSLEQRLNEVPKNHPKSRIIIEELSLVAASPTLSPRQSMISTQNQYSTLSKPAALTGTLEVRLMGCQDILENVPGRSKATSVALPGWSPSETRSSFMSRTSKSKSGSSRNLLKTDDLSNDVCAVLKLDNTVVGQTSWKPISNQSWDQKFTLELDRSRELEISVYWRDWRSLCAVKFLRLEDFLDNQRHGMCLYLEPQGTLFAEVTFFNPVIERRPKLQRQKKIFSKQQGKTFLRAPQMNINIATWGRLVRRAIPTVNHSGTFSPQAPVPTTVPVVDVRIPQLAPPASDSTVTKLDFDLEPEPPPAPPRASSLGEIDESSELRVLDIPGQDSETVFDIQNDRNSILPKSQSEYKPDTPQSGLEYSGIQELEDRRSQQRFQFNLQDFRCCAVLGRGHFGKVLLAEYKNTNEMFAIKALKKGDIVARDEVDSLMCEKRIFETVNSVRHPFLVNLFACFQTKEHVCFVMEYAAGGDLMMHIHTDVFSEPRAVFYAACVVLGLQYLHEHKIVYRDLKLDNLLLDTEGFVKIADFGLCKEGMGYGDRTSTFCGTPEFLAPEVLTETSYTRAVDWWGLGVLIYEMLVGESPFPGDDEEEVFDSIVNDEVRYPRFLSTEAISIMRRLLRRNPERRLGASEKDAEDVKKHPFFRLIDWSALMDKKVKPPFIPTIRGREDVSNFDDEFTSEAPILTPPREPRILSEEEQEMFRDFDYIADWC

[30] = target: PRKACA (human) (UniProt P17612); assay: Flashplate
[31] = target: PRKCD (human) (UniProt Q05655); assay: Flashplate
[32] = target: PRKCG (human) (UniProt P05129); assay: Flashplate
[33] = target: PRKCI (human) (UniProt P41743); assay: Flashplate
[34] = target: PRKD2 (human) (UniProt Q9BZL6); assay: Flashplate
[35] = target: PRKD3 (human) (UniProt O94806); assay: Flashplate
[36] = target: PRKG1 (human) (UniProt Q13976); assay: Flashplate
Chain of PRKG1 (human) (Q13976 whole entry, looked up): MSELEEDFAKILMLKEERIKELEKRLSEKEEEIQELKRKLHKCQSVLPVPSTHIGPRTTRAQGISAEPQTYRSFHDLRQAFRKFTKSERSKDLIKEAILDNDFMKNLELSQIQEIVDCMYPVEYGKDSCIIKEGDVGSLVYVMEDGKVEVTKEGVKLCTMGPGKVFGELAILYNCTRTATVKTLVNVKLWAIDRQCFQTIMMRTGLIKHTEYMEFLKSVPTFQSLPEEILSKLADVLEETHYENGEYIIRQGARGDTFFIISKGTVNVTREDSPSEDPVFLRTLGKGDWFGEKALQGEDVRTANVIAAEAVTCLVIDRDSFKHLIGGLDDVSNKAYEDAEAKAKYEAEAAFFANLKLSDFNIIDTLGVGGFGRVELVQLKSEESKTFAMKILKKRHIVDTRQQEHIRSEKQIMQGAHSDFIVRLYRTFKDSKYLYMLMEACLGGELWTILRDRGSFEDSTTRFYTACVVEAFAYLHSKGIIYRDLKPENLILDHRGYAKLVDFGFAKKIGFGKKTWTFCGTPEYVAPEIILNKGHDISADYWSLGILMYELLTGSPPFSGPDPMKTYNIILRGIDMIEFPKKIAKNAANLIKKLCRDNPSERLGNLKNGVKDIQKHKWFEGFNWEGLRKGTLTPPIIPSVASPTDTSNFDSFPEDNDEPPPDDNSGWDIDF

[37] = target: PRKG2 (human) (UniProt Q13237); assay: Flashplate
Chain of PRKG2 (human) (Q13237 whole entry, looked up): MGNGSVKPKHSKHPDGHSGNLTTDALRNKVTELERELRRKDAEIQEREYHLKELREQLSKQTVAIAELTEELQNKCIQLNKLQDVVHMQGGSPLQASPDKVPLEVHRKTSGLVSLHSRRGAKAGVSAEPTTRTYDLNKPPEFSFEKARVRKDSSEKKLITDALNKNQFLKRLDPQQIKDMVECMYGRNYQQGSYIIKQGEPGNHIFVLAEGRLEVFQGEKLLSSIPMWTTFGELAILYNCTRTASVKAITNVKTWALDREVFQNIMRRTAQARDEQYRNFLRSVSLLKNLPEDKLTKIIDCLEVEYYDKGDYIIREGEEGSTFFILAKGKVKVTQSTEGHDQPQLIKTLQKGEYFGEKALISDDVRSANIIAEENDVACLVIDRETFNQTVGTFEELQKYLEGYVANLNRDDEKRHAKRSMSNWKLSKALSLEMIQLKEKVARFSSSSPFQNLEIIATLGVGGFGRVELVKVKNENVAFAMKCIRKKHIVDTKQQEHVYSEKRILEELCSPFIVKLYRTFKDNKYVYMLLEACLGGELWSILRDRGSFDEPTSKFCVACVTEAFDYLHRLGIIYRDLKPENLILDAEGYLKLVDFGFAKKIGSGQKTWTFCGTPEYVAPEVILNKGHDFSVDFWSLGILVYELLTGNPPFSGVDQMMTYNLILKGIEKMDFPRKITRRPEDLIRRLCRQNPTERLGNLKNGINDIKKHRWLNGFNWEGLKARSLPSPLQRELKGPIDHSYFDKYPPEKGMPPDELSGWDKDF

[38] = target: ROCK1 (human) (UniProt Q13464); assay: Flashplate
[39] = target: SGK1 (human) (UniProt O00141); assay: Flashplate
[40] = target: STK3 (human) (UniProt Q13188); assay: Flashplate
[41] = target: TAOK1 (human) (UniProt Q7L7X3); assay: Flashplate

Chain of CDK1 (human) (P06493 whole entry, looked up): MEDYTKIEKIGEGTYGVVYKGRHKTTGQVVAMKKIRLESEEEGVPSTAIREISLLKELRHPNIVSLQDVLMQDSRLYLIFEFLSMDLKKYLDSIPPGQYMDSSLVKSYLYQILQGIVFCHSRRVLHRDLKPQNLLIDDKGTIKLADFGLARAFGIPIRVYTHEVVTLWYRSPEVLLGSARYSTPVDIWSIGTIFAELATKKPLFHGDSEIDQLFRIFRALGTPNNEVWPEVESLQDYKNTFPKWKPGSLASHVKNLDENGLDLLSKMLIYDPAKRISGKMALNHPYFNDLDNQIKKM
Chain of CAMK2G (human) (Q13555 whole entry, looked up): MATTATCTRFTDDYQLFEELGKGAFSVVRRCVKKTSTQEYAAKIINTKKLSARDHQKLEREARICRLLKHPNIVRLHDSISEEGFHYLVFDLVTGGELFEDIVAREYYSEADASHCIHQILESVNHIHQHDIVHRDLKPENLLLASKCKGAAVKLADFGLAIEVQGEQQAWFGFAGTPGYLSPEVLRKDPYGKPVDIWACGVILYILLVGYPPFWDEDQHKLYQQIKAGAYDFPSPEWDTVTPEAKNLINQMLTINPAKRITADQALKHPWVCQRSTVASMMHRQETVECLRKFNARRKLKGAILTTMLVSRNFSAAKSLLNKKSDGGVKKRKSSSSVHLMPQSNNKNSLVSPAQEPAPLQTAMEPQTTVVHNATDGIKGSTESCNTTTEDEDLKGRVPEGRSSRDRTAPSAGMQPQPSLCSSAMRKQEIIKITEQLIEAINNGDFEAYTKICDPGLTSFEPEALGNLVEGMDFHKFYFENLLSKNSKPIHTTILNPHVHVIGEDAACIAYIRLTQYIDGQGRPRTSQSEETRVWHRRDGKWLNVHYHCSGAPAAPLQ

SMILES: O=C1c2ccccc2-c2n[nH]c3cccc1c23
- Ki [1]: 158 nM
- Ki [2]: 200 nM
- Ki [3]: 794 nM
- Ki [4]: > 7940 nM
- Ki [5]: 10 nM
- Ki [6]: 1580 nM
- Ki [7]: 1000 nM
- Ki [8]: 1000 nM
- Ki [9]: 501 nM
- Ki [10]: 63.1 nM
- Ki [11]: 316 nM
- Ki [12]: 31.6 nM
- Ki [13]: 2000 nM
- Ki [14]: 1000 nM
- Ki [15]: > 10000 nM
- Ki [16]: 126 nM
- Ki [17]: 316 nM
- Ki [18]: 316 nM
- Ki [19]: 5010 nM
- Ki [20]: > 6310 nM
- Ki [21]: > 7940 nM
- Ki [22]: 398 nM
- Ki [23]: 316 nM
- Ki [24]: 1000 nM
- Ki [25]: > 10000 nM
- Ki [26]: > 5010 nM
- Ki [27]: 501 nM
- Ki [28]: 316 nM
- Ki [29]: > 7940 nM
- Ki [30]: > 7940 nM
- Ki [31]: > 7940 nM
- Ki [32]: 316 nM
- Ki [33]: > 5010 nM
- Ki [34]: 158 nM
- Ki [35]: 100 nM
- Ki [36]: > 2000 nM
- Ki [37]: > 1580 nM
- Ki [38]: 2000 nM
- Ki [39]: 251 nM
- Ki [40]: 316 nM
- Ki [41]: 5010 nM

Reference: the kinase profiling compilation of Christmann-Franck et al. (2016)
